Key:
Assay type in all cases: in vivo, rat
[1] = system: anxiety parameters in rats; assay: Elevated plus maze test (EPM); conditions: 10 mg/kg i.p., 30 minutes before maze testing
Experimental: (§1) Anticonvulsant effect of compounds was evaluated in two models of epileptic seizures in immature rats (PTZ model and 6 Hz model). PTZ convulsions were tested in 12- and 25-day-old rats, 6 Hz-induced seizures in 15- and 25-day-old rats. Young adult rats (P60) were also used in either test. Day of birth was taken as P0. Experiments evaluating precognitive effect were performed in adult male rats of the Wistar and Long Evans strain (3 months old, b.w. 300-400 g). All animals were obtained from a breeding facility of Institute of Physiology CAS (certificate No. 1396/2014-MZE-17214) Animals were held in standard conditions (21±1° C., humidity 50-60%, light regime 12/12) with unrestricted access to food and water. All manipulations with animals were performed according to the https://nc3rs.org.uk/arrive-guidelines and to Czech Animal Protection Law 246/1992 Sb. And international directives (EU Directive 2010/63/EU for animals' experiments).
Behavioral models of the affective disorders are based on exposure to stress. […]
In the EPM test, the Compound from Example 1 was administered at doses of 1, 3 and 10 mg/kg, i.p. 30 minutes before maze testing. Time spent in open arms, closed arms, and central platform were recorded during a 10-min test session.

[2] = system: PTZ-induced seizures in 12- and 25-day-old rats; assay: PTZ-induced generalized tonic-clonic seizures in immature rats
Experimental: as §1
Two age groups of immature male Wistar rats were used in either experiment. In PTZ model P12 corresponding by a maturation of the brain to early postnatal human babies, i.e. to the period where children epileptic encephalopathy mostly resistant to present pharmacotherapy start to appear. The other group—P25 animals corresponds with school-age children. Generalized tonic-clonic seizures were elicited by a subcutaneous injection of PTZ in a dose of 100 mg/kg. The 6 Hz model was tested in P15 (at this age eyes are open and it is not necessary to surgically distract lids). Biphasic pulses with […] were applied transcorneally for 3 s by a constant current stimulator of Ugo Basile company. PTZ induced generalized seizures represent a model of human generalized tonic-clonic seizures, seizures elicited by 6 Hz stimulation are generally taken as a model of temporal (psychomotor, complex partial) seizures. Differences in latencies and seizure severity were evaluated by ANOVA with a subsequent pairwise comparison by Holm-Sidak test. Incidence of seizures were evaluated by Fischer exact test. Critical p value was set at p=0.05.
Anticonvulsant effect was studied in 12- and 25-day-old male Wistar rats. Steroid derivatives were administered at doses of 1, 5 and 10 mg/kg i.p. 20 min before the administration of PTZ (100 mg/kg s.c.).

[3] = system: memory in rats; assay: Passive avoidance test, intact animals and dizocilpine (MK-801) schizophrenia-like behavior
Experimental: as §1
Schizophrenia-like behavior was induced by i.p. administration of dizocilpine (MK-801) at a dose of 0.1 mg/kg. The effect of the Compound from Example 1 was tested in Passive avoidance test (Psychopharmacology (Berl). 2016, 233, 2077). This test allows to study memory and learning ability. The Compound from Example 1 was applied for 30 min i.p. before the task in doses of 0.1; 1 and 3 mg/kg.

[4] = system: NMDA lesion of the dorsal hippocampus in male rats; assay: bilateral excitotoxic NMDA lesion of the dorsal hippocampus; conditions: 1 mg/kg i.p. 5 minutes after NMDA lesion, evaluated 24 h
Experimental: The tissue damage is induced by infusing NMDA (25 mmol.L^−1) into the dorsal hippocampus in the male rats. The figures in panel (FIG. 9A) show representative images of brain slices of control animals, in panel (FIG. 9B) the group of animals which were administered the solutions containing NMDA into dorsal hippocampus (NMDA lesion) and i.p. treated by (2-hydroxypropyl)-β-cyclodextrin (CDX) and in panel (FIG. 9C) brain slices of the animals, with NMDA lesions of the dorsal hippocampus and i.p. treated by the Compound of Example 1 at a dose of 1 mg/kg dissolved in CDX.
The neuroprotective effect of the Compound from Example 1 was tested in the model of bilateral excitotoxic lesion of the dorsal hippocampus. The procedure was performed according to literature (Neuropharmacology 2011, 61, 61). This model simulates the overstimulation of NMDA receptors that occurs in the number of pathophysiological states, leading to calcium flow into the neuron's and, consequently, to apoptosis […] necrosis. Clinically, this phenomenon is manifested by neurodegeneration and CNS damage. Rats were randomly divided into three groups. […] Histological damage, e.g. the neuroprotective effect of Compound from Example 1 was evaluated by staining damaged neurons with Fluoro Jade B (Merck Millipore, Catalog Number AG310-30MG), and evaluated areas included: hippocampus-DG, hilus, CA3, CA1.

[5] = system: latency to feed in rats; assay: Novelty suppressed feeding model (NSF)
Experimental: as §1
Behavioral models of the affective disorders are based on exposure to stress. Two behavioral tests were performed: the Elevated plus maze test (EPM, Nat. Protoc. 2007, 2, 322) and the Novelty suppressed feeding model (NSF, Interdiscip. Toxicol. 2017, 10, 40).
In the NSF test, the Compound from Example 1 was administered i.p. 30 min before the test at doses 0.1; 0.3; 1; 3 and 10 mg/kg.

## CC(=O)[C@H]1CC[C@H]2[C@@H]3CC[C@@H]4C[C@H](OC(=O)C5CCC(=O)N5)CC[C@]4(C)[C@H]3CC[C@]12C (stereo partly drawn) [Example 1, (3R,5R,8R,9S,10S,13S,14S,17S)-17-Acetyl-10,13-dimethylhexadecahydro-1H-cyclopenta[a]fenantren-3-yl 5-oxopyrrolidine-2-carboxylate]
[1]
  anxiety parameters: significant reduction of anxiety parameters
[2]; P12 and P25 rats, 1, 5, 10 mg/kg i.p.
  seizure severity (5-point scale): copied the presence of GTCS
[2]; P12 rats, 1 mg/kg i.p.
  tonic phase of GTCS: suppressed the tonic phase of GTCS
[2]; P12 rats, 5 mg/kg i.p.
  incidence of seizures: significantly decrease the incidence of seizures
[2]; P12 rats, 10 mg/kg i.p.
  incidence of seizures: completely suppressed the seizures
[2]; P12 rats, 1 and 5 mg/kg i.p.
  latencies to GTCS: significantly prolonged
[2]; P25 rats, 1 mg/kg i.p.
  latencies of seizures: not changed
[2]; P25 rats, 5 and 10 mg/kg i.p.
  animals with seizures: one animal only
  incidence of GTCS: decrease the incidence of GTCS without a selective effect against the tonic phase
[3]; dizocilpine 0.1 mg/kg, compound 0.1 mg/kg i.p.
  memory damage measured 1 h after the stimulus: prevented memory damage
[3]; intact animals, 0.1, 1 and 3 mg/kg i.p.
  memory one hour after the aversive stimulus: does not impair memory
[4]
  dorsal hippocampus damage (Fluoro Jade B staining): significant reduction in the dorsal hippocampus damage
[5]; 0.3 mg/kg i.p., 30 min before the test
  latency to feed (anxiolytic parameter): significant decrease in latency to feed
[5]; 1 and 3 mg/kg i.p.
  latency of feed intake: trend to decrease the latency of feed intake
